Test results from patent US7351744B2, “Naphthalene derivatives as termite repellents and toxicants” (Board of Supervisors of Louisiana State University and …, priority 2003, dated 2008).

What was measured:
[1] = tested on: C. formosanus workers and soldiers; assay: Treated wood slices as sole food source; assay type: in vivo, Coptotermes formosanus; conditions: colonies C and WB combined
Experimental: To assay the effect of 2′-acetonaphthone on termites when added to a sole food source, acute and cumulative toxicities of 2′-acetonaphthone-treated filter paper (Whatman #2) and balsa wood (Ochroma lagopus Swartz) slices (2.3 cm×4.0 cm) were evaluated. Seven concentrations (0, 1, 10, 50, 100, 500, and 1000 mg/l) were prepared in 100 ml ethanol. Six filter papers and six wood slices were soaked in each concentration for 4 h; control filter papers and wood slices were soaked only in ethanol. After treatment, the food sources were kept overnight at ambient conditions for solvent evaporation. Eighty-four plastic containers (5.5 cm diameter×3.7 cm height) were provided with 22 g of wetted sand (20 g sand (fine blasting sand #4, Cement Products Inc., Baton Rouge, La.) mixed with 2 ml DDH2O). Then either a filter paper or a wood slice was separately placed to fit on the surface of the wetted sand and wetted with DDH2O (250 μl). Into each container, fifty workers and 20 soldiers were placed on the surface of the filter paper or wood slice. For each concentration and food sourse, three replicates received termites from colony C, and three replicates received termites from colony WB. The containers were covered and incubated for 10 days at 27.4° C. and 70% RH. Containers were monitored everytwo days to ensure suitable moisture. On days 1, 5 and 10, the number of living workers and soldiers were counted. An average percent survival was calculated for each treatment. (See Tables 2 and 3).

C. formosanus workers = assay: Treated sand when untreated sand is an alternative; assay type: in vivo, Coptotermes formosanus; conditions: for Survival (mean % ± SE) day 12: Colony WB; for Survival (mean % ± SE) day 12 / Survival (% ± SE) day 12: treated and untreated sand; for Survival (% ± SE) day 12: Colony E
Experimental: To further test the repellency of 2′-acetonaphthone, the three-chambered transparent plastic containers described in Example 5 were used. Sand was treated, allowed to dry from the solvent, and wetted with DDH2O as described in Example 5. Treated sand was placed in one of the side chambers, and the other side chamber received an equal amount of untreated sand. The concentrations of 2′-acetonaphthone used were 4.16, 8.33, 16.67, 33.33 and 66.67 mg/kg sand. Each concentration and the control had five replicate containers. Weighed balsa wood slices (0.159 cm×3.5 cm×6.0 cm each) were placed on the surface of both treated and untreated sand, and were wetted with 1 ml of DDH2O. Termites (200 workers and 20 soldiers) from colony WB were released in the middle chamber. On days 2, 3, 4 and 7, the bottom of each container was scanned, and tunnel areas measured as above. On day 12, the number of living termites in each container was recorded. The wood slices were then cleaned, dried and re-weighed to calculate food consumption.
The above experiment was repeated with new concentrations of 2′-acetonaphthone: 8.75, 17.5, 35, 70 and 140 mg/kg sand. Termites from colony E were tested, and the food source was changed to filter paper. Tunnels were scanned and measured on days 2, 5, 8 and 12. The data were analyzed as described in Example 5, and paired t-tests were used to compare tunneling and feeding activities between treated and untreated sides.

SMILES: CC(=O)c1ccc2ccccc2c1 [2′-acetonaphthone]
- Percent survival ([1]; wood slices 1 mg/l, Day 1, Soldier): 93.33 ± 1.67 a %
- Percent survival ([1]; wood slices 1 mg/l, Day 1, Worker): 85.0 ± 5.29 a %
- Percent survival ([1]; wood slices 1 mg/l, Day 5, Soldier): 60.0 ± 13.54 a %
- Percent survival ([1]; wood slices 1 mg/l, Day 5, Worker): 55.33 ± 12.87 a %
- Percent survival ([1]; wood slices 1 mg/l, Day 10, Soldier): 47.50 ± 11.61 a %
- Percent survival ([1]; wood slices 1 mg/l, Day 10, Worker): 52.67 ± 12.55 a %
- Percent survival ([1]; wood slices 10 mg/l, Day 1, Soldier): 86.67 ± 4.41 a %
- Percent survival ([1]; wood slices 10 mg/l, Day 1, Worker): 83.33 ± 5.03 a %
- Percent survival ([1]; wood slices 10 mg/l, Day 5, Soldier): 54.17 ± 11.14 a %
- Percent survival ([1]; wood slices 10 mg/l, Day 5, Worker): 63.67 ± 11.13 a %
- Percent survival ([1]; wood slices 10 mg/l, Day 10, Soldier): 46.67 ± 12.36 a %
- Percent survival ([1]; wood slices 10 mg/l, Day 10, Worker): 50.67 ± 8.79 a %
- Percent survival ([1]; wood slices 50 mg/l, Day 1, Soldier): 85.0 ± 5.0 a %
- Percent survival ([1]; wood slices 50 mg/l, Day 1, Worker): 86.67 ± 5.26 a %
- Percent survival ([1]; wood slices 50 mg/l, Day 5, Soldier): 48.33 ± 10.38 a %
- Percent survival ([1]; wood slices 50 mg/l, Day 5, Worker): 65.0 ± 13.51 a %
- Percent survival ([1]; wood slices 50 mg/l, Day 10, Soldier): 39.17 ± 8.41 a %
- Percent survival ([1]; wood slices 50 mg/l, Day 10, Worker): 49.67 ± 10.23 a %
- Percent survival ([1]; wood slices 100 mg/l, Day 1, Soldier): 90.0 ± 2.89 a %
- Percent survival ([1]; wood slices 100 mg/l, Day 1, Worker): 88.67 ± 3.33 a %
- Percent survival ([1]; wood slices 100 mg/l, Day 5, Soldier): 55.83 ± 11.94 a %
- Percent survival ([1]; wood slices 100 mg/l, Day 5, Worker): 56.67 ± 12.15 a %
- Percent survival ([1]; wood slices 100 mg/l, Day 10, Soldier): 45.0 ± 9.58 a %
- Percent survival ([1]; wood slices 100 mg/l, Day 10, Worker): 47.67 ± 10.97 a %
- Percent survival ([1]; wood slices 500 mg/l, Day 1, Soldier): 80.83 ± 10.44 a %
- Percent survival ([1]; wood slices 500 mg/l, Day 1, Worker): 84.67 ± 2.41 a %
- Percent survival ([1]; wood slices 500 mg/l, Day 5, Soldier): 17.50 ± 7.61 b %
- Percent survival ([1]; wood slices 500 mg/l, Day 5, Worker): 54.33 ± 8.01 a %
- Percent survival ([1]; wood slices 500 mg/l, Day 10, Soldier): 4.17 ± 2.38 b %
- Percent survival ([1]; wood slices 500 mg/l, Day 10, Worker): 30.67 ± 9.18 a %
- Percent survival ([1]; wood slices 1000 mg/l, Day 1, Soldier): 84.17 ± 7.24 a %
- Percent survival ([1]; wood slices 1000 mg/l, Day 1, Worker): 86.67 ± 3.53 a %
- Percent survival ([1]; wood slices 1000 mg/l, Day 5, Soldier): 2.50 ± 2.49 b %
- Percent survival ([1]; wood slices 1000 mg/l, Day 5, Worker): 13.0 ± 9.85 b %
- Percent survival ([1]; wood slices 1000 mg/l, Day 10, Soldier): 0.0 ± 0.0 b %
- Percent survival ([1]; wood slices 1000 mg/l, Day 10, Worker): 5.67 ± 4.27 b %
- Survival (mean % ± SE) day 12 (C. formosanus workers; 4.16 mg/kg): 48.75 ± 2.78 ab %
- Survival (mean % ± SE) day 12 (C. formosanus workers; 8.33 mg/kg): 36.00 ± 4.76 bc %
- Survival (% ± SE) day 12 (C. formosanus workers; 8.75 mg/kg): 61.60 ± 2.79 abc %
- Survival (mean % ± SE) day 12 (C. formosanus workers; 16.67 mg/kg): 35.25 ± 3.47 bc %
- Survival (% ± SE) day 12 (C. formosanus workers; 17.5 mg/kg): 67.20 ± 1.36 ab %
- Survival (mean % ± SE) day 12 (C. formosanus workers; 33.33 mg/kg): 17.33 ± 7.22 c %
- Survival (% ± SE) day 12 (C. formosanus workers; 35.0 mg/kg): 59.0 ± 7.72 bc %
- Survival (mean % ± SE) day 12 (C. formosanus workers; 66.67 mg/kg): 24.25 ± 11.99 c %
- Survival (% ± SE) day 12 (C. formosanus workers; 70.0 mg/kg): 53.0 ± 2.34 c %
- Survival (% ± SE) day 12 (C. formosanus workers; 140.0 mg/kg): 51.60 ± 3.97 c %
- concentration with significantly reduced survival after 12 days (C. formosanus workers; colony E): ≥ 35.0 mg/kg sand
- concentration significantly reducing overall tunneling (treated plus untreated sand) (C. formosanus workers; colony E, 12 days): ≥ 35.0 mg/kg
- concentration with significant reduction in consumption of filter paper on treated sand (C. formosanus workers; colony E, 12 days): ≥ 8.75 mg/kg
- concentration with significantly less total food consumption (C. formosanus workers; colony E, only this treatment): 140 mg/kg
- concentration with significant reduction in tunneling activity in treated sand (C. formosanus workers; colony E, up to 12 days): ≥ 17.5 mg/kg
- concentration with significantly reduced survival on day 12 (C. formosanus workers; colony WB): ≥ 8.33 mg/kg
- concentration with significantly reduced consumption of wood slices on treated sand (C. formosanus workers; colony WB, 12 days): ≥ 8.33 mg/kg
- concentration with significant difference in tunneling activity between untreated and treated sand (C. formosanus workers; colony WB, days 2, 3, 4, 7): ≥ 16.67 mg/kg sand
